Read-outs that look alike come from different tables or passages of the source.
Tests used:
FHC [1] = experiment: Neuronal FHC protein levels by Western blot in cultured cortical neurons; type: cell-based, rat; settings: for FHC protein levels: neurons in the absence of glia, 0.5 to 30 ng/mL, vs vehicle
Experimental: (§1) Rat cortical neurons were cultured in the presence of a glial feeder layer, using the bilaminar cell culture model. Due to the presence of glia this culture system largely preserves the in vivo mechanisms of neuronal growth and differentiation, but also allows for direct studies on neurons, which were separated from glia at the time of analysis. Selected experiments were performed using glia-free neuronal cultures, as noted, using previously described protocols (Sengupta et al., 2009, J. Neurosci. 29:2534-2544). Neurons were transfected at the time of plating by Nucleofection (Amaxa), or after 8 days in culture by lipofectamine (Invitrogen). All experiments were conducted at 21 DIV, unless otherwise noted. HDAC4 and control (scrambled) siRNA were obtained from Ambion (s170677 and 4390843), and FHC/scrambled shRNA from GenScript (custom order; shRNA vector also expressed GFP).
(§2) Protease and phosphatases inhibitors were added to both buffers.
Rat cortical neurons were cultured in serum-free media in the presence of a glial feeder layer (Shimizu, et al., 2011, J. Vis. Exp. 57). This culture system largely preserves the in vivo environment, due to the presence of glia; however, it still enables direct investigation of neurons that can be separated by the glia before experiments. Selected studies were also performed in neurons grown in the absence of glia for the entire culture period, as indicated (Sengupta, et al., 2009, J. Neurosci. 29(8):2534-44). All experiments were conducted between 8-13 days in vitro (DIV).
Total protein extracts were obtained using standard protocols. […] The following antibodies were used: anti-FHC (3998, Cell Signaling Technology, 1:1,000) and anti-β-actin (A2066, Sigma-Aldrich, 1:5,000).

FHC [2] = experiment: FHC transcript levels in neurons; type: cell-based, rat; settings: neurons in the absence of glia
[3] = tested on: layer II/III pyramidal neurons of the prefrontal cortex; experiment: In vivo dendritic spine analysis (Golgi stain, Neurolucida); set-up: species or system rat
[4] = tested on: layer 2/3 pyramidal neurons in the prefrontal cortex; type: cell-based, rat
Rat cortical neurons = type: cell-based; settings: for effect on CXCL12-induced increase of spine density: AMD3100 100 ng/ml 20 min or PTx 100 ng/ml 18 hrs before CXCL12 (20 nM, 3 hours)
Experimental: as §1
For in vitro experiments, neurons were cultured in the presence of glia for 21 days, then fixed and stained for MAP2 (Millipore, 1:1000; detected with Goat antirabbit Alexa 568, Invitrogen 1:250) and counterstained with phalloidin (Invitrogen, 25 μg/mL). For FHC shRNA experiments neurons were identified and analyzed using incorporated GFP expression. Images were acquired with a Zeiss LSM5 laser scanning confocal microscope, using a 63× objective. Dendritic spines were defined as phalloidin- or GFP-positive protrusions clearly connected to the dendrite by a thin shaft. For each neuron 3-4 segments totaling at least […] in length were added to measure spine density, and each neuron was represented as a single data point. Each experiment included 3-4 coverslips from each of 2 or more separate preparations. For in vivo experiments, dendritic spines were visualized using a Golgi stain kit, following instructions from the manufacturer (FD NeuroTechnologies). Brains were rapidly removed, rinsed in H2O, and incubated in the Golgi stain for 2 weeks. The tissue was then cryoprotected in sucrose at 4° C. for 7 days, and frozen in isopentane. Brains were sectioned by cryostat at a thickness of 180 μm, and mounted on gelatin-coated microscope slides. Sections were allowed to dry overnight, and a signal intensification step performed before dehydrating, clearing in xylene, and coversliping with Permount (Fisher Scientific). Spine analysis was performed using Neurolucida software equipped with a 100× objective (FIG. 7A). Pyramidal neurons in layer 2-3 of prefrontal cortex were identified and reconstructed in their entirety, and total spine density for each neuron was reported as a single data point. 3 neurons were analyzed from each brain, and 4-5 brains used for each experimental group.

HOS cells = experiment: Calcein assay (labile iron pool); type: cell-based, human; settings: DFO 100 µM, six hours; empty vector HOS cells
Experimental: HOS cells transfected with either empty vector (EV), wild type FHC (WT-FHC) or FHC 222 mutant (Mut-FHC) were plated in 96-well plates at 20,000 cells per well. After 24 hours of serum starvation, vehicle or the iron chelator DFO ([…]) were added, respectively, to the untreated EV wells (Control) and to the positive control wells (DFO). Six hours later all cells were washed with PBS, and loaded with the iron-binding dye calcein (200 μg/mL) for 20 minutes. Cells were then washed again in PBS, and calcein fluorescence measured (excitation 485 nm, emission 535 nm), as a measure of the labile iron pool.
Human osteosarcoma cells expressing high levels of CXCR4 (HOS-X4) were transfected with either of these FHC plasmids and selected to generate stable cell lines. First, in order to confirm the differential effects of these proteins on iron sequestration, free intracellular iron levels were compared using the fluorescent probe calcein. Calcein is delivered as a calcein-AM ester, which passes across the plasma membrane into cells and is cleaved by cytosolic esterases to produce membrane-impermeable calcein. The fluorescence of this trapped calcein is quenched following chelation with labile iron, and therefore the degree of quenching is a commonly used estimation of free intracellular iron levels.

HDAC4 = experiment: Nuclear HDAC4 levels by immunocytochemistry and western blot; type: cell-based, rat; settings: pure neuronal culture; CXCL12 20 nM, 30 min
Experimental: as §2
Neurons were fixed in 4% paraformaldehyde, and stained with MAP2 (Millipore, 1:1000) and HDAC4 (Epigentek, 1:150), detected with cy2- and cy3-conjugated secondary antibodies. Cell nuclei were visualized with Hoechst (Invitrogen, 1:2000), and images were acquired with a Zeiss LSM5 laser scanning confocal microscope (Imager.Z1m), mounting 10, 20, 40, and 63× objectives.

FHC [5] = experiment: Multispectral imaging of FHC optical density within MAP2+ neurons, non-human primate; type: in vivo, rhesus macaque; settings: morphine 3 then 5 mg/kg 3 times daily, 90-110 days; frontal cortex
CXCR4 = experiment: Multispectral imaging of total CXCR4 optical density within MAP2+ neurons, non-human primate; type: in vivo, rhesus macaque; settings: morphine treated macaques; frontal cortex
pCXCR4-Ser339 = experiment: Multispectral imaging of pCXCR4 optical density within MAP2+ neurons, non-human primate; type: in vivo, rhesus macaque; settings: morphine treated macaques; frontal cortex
[6] = AMD3100 1 μg ICV, 6 hours, CXCL12 20 nM, 3 hours slice incubation
[7] = held at −70 mV, picrotoxin, AMD3100 ICV or CXCL12 20 nM 3 hrs

“IL-1β: Recombinant IL-1β, proinflammatory cytokine, R&D Systems” was tested, and the FHC protein levels (FHC [1]) was “significant increase of FHC protein levels” and the FHC transcript levels (FHC [2]) was “did not affect levels of FHC mRNA”.
TNF-α was tested, and the FHC protein levels (FHC [1]) was “significant increase of FHC protein levels” and the FHC transcript levels (FHC [2]) was “increased”.
With `c1cc(CN2CCCNCCNCCCNCC2)ccc1CN1CCCNCCNCCCNCC1` [AMD3100, 1,1′-[1,4-phenylenebis (methylene)]bis[1,4,8,11-tetraazacyclotetradecane], reference compound] the dendritic spine density ([3]; osmotic pump into left lateral ventricle, 0.75 μg/hour for 4 days) was “similarly able to decrease dendritic spine densities”, the dendritic spine density ([3]; single 1 μg ICV injection, 3-week-old rats, 6 hours post-injection) was “significantly decreased spine densities” and the 20-80% rise time [4] was 0.31 ± 0.02 ms. For the same compound, the after hyperpolarization [4] was −12.8 ± 1.5 mV, the mEPSC amplitude [4] was 16.55±0.55 pA and the mEPSC frequency [4] was 2.27±0.33 Hz. The peak spike amplitude [4] was 72.6 ± 5.3 mV, the resting membrane potential [4] was −76.9 ± 2.3 mV and the spike half-width [4] was 1.3 ± 0.12 ms. For the same compound, the “spike number generation in response to varying step currents” value [4] was “no drug effect on spike number generation”, the spike threshold [4] was −38.4 ± 3.0 mV and the input resistance [4, 6] was 138.3 ± 9.5 M′Ω. For the same compound, the sEPSC amplitude [4, 7] was 16.79±0.80 pA, the sEPSC frequency [4, 7] was 3.84±0.65 Hz and the “effect on CXCL12-induced increase of spine density” value (Rat cortical neurons) was “blocked”.
In the case of `CC(=O)N(O)CCCCCNC(=O)CCC(=O)N(O)CCCCCNC(=O)CCC(=O)N(O)CCCCCN` [DFO, desferrioxamine], the calcein fluorescence (HOS cells) is reported as “increased”.
With “CXCL12: recombinant chemokine CXCL12 from Peprotech, endogenous CXCR4 ligand” the “nuclear HDAC4 levels” value (HDAC4) was “increased nuclear HDAC4 levels”, the mEPSC amplitude [4] was 25.25±1.02 pA and the mEPSC frequency [4] was 1.43±0.25 Hz. The resting membrane potential [4] was −76.1 ± 2.3 mV, the sEPSC amplitude [4] was 25.32±0.43 pA and the sEPSC frequency [4] was 1.85±0.41 Hz. For the same compound, the 20-80% rise time [4, 6] was 0.29 ± 0.01 ms, the after hyperpolarization [4, 6] was −12.0 ± 0.9 mV and the input resistance [4, 6] was 121.8 ± 13.2 M′Ω. The peak spike amplitude [4, 6] was 74.0 ± 2.8 mV, the spike half-width [4, 6] was 1.2 ± 0.07 ms and the spike threshold [4, 6] was −42.9 ± 2.3 mV. For the same compound, the “spike number generation in response to varying step currents” value ([4]; current clamp, AMD3100 ICV or CXCL12 ex vivo vs vehicle) was “no drug effect on spike number generation”, the dendritic spine density (Rat cortical neurons; 21 days culture with glial feeder layer, CXCL12 20 nM, 3 hours) was “moderate but significant increase in spine density” and the “effects of CXCL12 on spine density in HDAC4-deficient neurons” value (Rat cortical neurons; HDAC4-specific siRNA, pure neuronal population) was “completely prevented”. The dendritic spines (Rat cortical neurons; pure neuronal population, 21 days, 20 nM CXCL12, multiple time points) was “time-dependent increase in dendritic spines”.
`CN1CC[C@]23c4c5ccc(O)c4O[C@H]2[C@@H](O)C=C[C@H]3[C@H]1C5` [morphine] was tested, and the “neuronal FHC (OD within MAP2+ neurons)” value (FHC [5]) was “significantly elevated”, the FHC levels (FHC [1]; cultured rat cortical neurons, morphine 1 μm, 24 hours) was “significantly increases FHC levels” and the “total neuronal CXCR4 levels” value (CXCR4) was “unchanged”. For the same compound, the “neuronal pCXCR4 levels” value (pCXCR4-Ser339) was “significant reduction in pCXCR4 levels”, the “ability of morphine to regulate spines in FHC-deficient neurons” value (Rat cortical neurons; FHC-specific shRNA vs scrambled) was “blocked” and the “number of dendritic spines” value (Rat cortical neurons; morphine 1 μm, 24 hours, 21 days culture) was “significant decrease in the number of dendritic spines”.
pertussis toxin was tested, and the “effect on CXCL12-induced increase of spine density” value (Rat cortical neurons) was “blocked”.

Reference: patent publication US20160271248A1, “CXCR4 UP- AND DOWN-REGULATION FOR TREATMENT OF DISEASES OR DISORDERS” (priority 2013, published 2016)
